Test results as given in article PMC7377239, “Cardiovascular Effects of Polychlorinated Biphenyls and Their Major Metabolites” (Environmental Health Perspectives, 2020).
Read-outs that look alike come from different tables or passages of the source.

Columns and labels:
HUVECs = assay: High-content imaging cytotoxicity in HUVECs, 24 h; assay type: cell-based, human; conditions: Homo sapiens, HUVEC, 24 h, HUVECs; for viability at 0.01 µM / activity at 0.01 µM / viability at 0.1 µM / activity at 0.1 µM / viability at 1 µM / activity at 1 µM / viability at 10 µM / activity at 10 µM / viability at 100 µM / activity at 100 µM: 0.00 µM = 100.00; for viability at 0.1 µM / activity at 0.1 µM: 0.10 µM; for minimal effective concentration: top concentration 100.00 µM
Procedure, shortened: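 Point-of-departure values come from four-parameter logistic fits of vehicle-normalized (0.5% DMSO) imaging readouts, cutoff one SD of vehicle means, 100μM where no concentration–response. Cells: HUVEC monolayers, passages 1–5, treated 24 h at 37°C, 5% CO2, then Hoechst 33342/MitoTracker Orange/calcein AM stained, imaged at 10×.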

[1] = system: iCell cardiomyocytes (human iPSC-derived cardiomyocytes); assay: High-content imaging of cytotoxicity and mitochondrial integrity in iPSC-CMs; assay type: cell-based; conditions: Homo sapiens; for viability at 0.01 µM / activity at 0.01 µM / viability at 0.1 µM / activity at 0.1 µM / viability at 1 µM / activity at 1 µM / viability at 10 µM / activity at 10 µM / viability at 100 µM / activity at 100 µM: Cardiomyocyte, 0.00 µM = 100.00; for viability at 0.1 µM / activity at 0.1 µM: 0.10 µM; for minimal effective concentration: iPSC-CM
Procedure, shortened: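 This assay measured cytotoxicity and mitochondrial integrity in iPSC cardiomyocytes held in 40μL maintenance medium. After compound exposure, a 2× staining solution with Hoechst 33342 (4μg/mL) and MitoTracker™ Orange (0.4μM) was applied for 15 min at 37°C. Cells were washed, fixed with 3.7% formaldehyde, imaged on DAPI and Cy3 channels, and scored in MetaXpress®.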

[2] = 24 hr, read-out: huvec.cyto.24hr
[3] = 24 hr, read-out: huvec.mito.24hr
[4] = 24 hr, read-out: huvec.mitoint.24hr
[5] = 24 hr, read-out: huvec.nma.24hr
[6] = 24 hrs, read-out: huvec.tc.24hrs

For Clc1cccc(-c2cccc(Cl)c2)c1 [PCB11], which viability at 0.01 µM (HUVECs; [2]) is on record?
Its viability at 0.01 µM is 91.9%.

What about the activity at 0.01 µM (HUVECs; [3]) of the same molecule?
Its activity at 0.01 µM is 90.9%.

And the activity at 0.01 µM (HUVECs; [4])?
The activity at 0.01 µM was 90.3%.

And the activity at 0.01 µM (HUVECs; [5])?
Its activity at 0.01 µM is 99.1%.

What about the viability at 0.1 µM (HUVECs; [2]) of the same molecule?
Its viability at 0.1 µM is 99.2%.

What about the activity at 0.1 µM (HUVECs; [3]) of the same molecule?
The activity at 0.1 µM was 97.8%.

What about the activity at 0.1 µM (HUVECs; [4]) of the same molecule?
The activity at 0.1 µM was 99.8%.

What about the activity at 0.1 µM (HUVECs; [5]) of the same molecule?
Its activity at 0.1 µM is 99.1%.

And the viability at 1 µM (HUVECs; [2])?
Its viability at 1 µM is 96.6%.

What about the activity at 1 µM (HUVECs; [3]) of the same molecule?
The activity at 1 µM was 96.2%.

And the activity at 1 µM (HUVECs; [4])?
The activity at 1 µM was 95.2%.

And the activity at 1 µM (HUVECs; [5])?
Its activity at 1 µM is 98.1%.

What about the viability at 10 µM (HUVECs; [2]) of the same molecule?
Its viability at 10 µM is 95%.

What about the activity at 10 µM (HUVECs; [3]) of the same molecule?
Its activity at 10 µM is 93.9%.

And the activity at 10 µM (HUVECs; [4])?
Its activity at 10 µM is 89.1%.

What about the activity at 10 µM (HUVECs; [5]) of the same molecule?
Its activity at 10 µM is 96.6%.

And the viability at 100 µM (HUVECs; [2])?
The viability at 100 µM was 44.7%.

What about the activity at 100 µM (HUVECs; [3]) of the same molecule?
Its activity at 100 µM is 22.1%.

And the activity at 100 µM (HUVECs; [4])?
Its activity at 100 µM is 15.7%.

And the activity at 100 µM (HUVECs; [5])?
Its activity at 100 µM is 54.9%.

And the minimal effective concentration (HUVECs; 24 hr, read-out: huvec.cyto.24hr POD)?
Its minimal effective concentration is 11.2 µM.

And the minimal effective concentration (HUVECs; 24 hr, read-out: huvec.mito.24hr POD)?
Its minimal effective concentration is 9.68 µM.

What about the minimal effective concentration (HUVECs; 24 hr, read-out: huvec.mitoint.24hr POD) of the same molecule?
Its minimal effective concentration is 7.62 µM.

And the minimal effective concentration (HUVECs; 24 hr, read-out: huvec.nma.24hr POD)?
Its minimal effective concentration is 9.3 µM.

And the viability at 0.01 µM (HUVECs; [6])?
The viability at 0.01 µM was 91.9%.

And the viability at 0.1 µM (HUVECs; [6])?
Its viability at 0.1 µM is 99.2%.

And the viability at 1 µM (HUVECs; [6])?
Its viability at 1 µM is 96.6%.

And the viability at 10 µM (HUVECs; [6])?
Its viability at 10 µM is 95%.

What about the viability at 100 µM (HUVECs; [6]) of the same molecule?
Its viability at 100 µM is 44.9%.

And the minimal effective concentration (HUVECs; 24 hrs, read-out: huvec.tc.24hrs POD)?
Its minimal effective concentration is 11.2 µM.

And the viability at 0.01 µM ([1]; 1.5 h, read-out: cm.cam.90min)?
Its viability at 0.01 µM is 99%.

What about the activity at 0.01 µM ([1]; 1.5 h, read-out: cm.mii.90min) of the same molecule?
Its activity at 0.01 µM is 116%.

And the activity at 0.01 µM ([1]; 1.5 h, read-out: cm.mito.90min)?
The activity at 0.01 µM was 99.1%.

And the viability at 0.01 µM ([1]; 1.5 h, read-out: cm.tc.90min)?
Its viability at 0.01 µM is 99%.

What about the viability at 0.1 µM ([1]; 1.5 h, read-out: cm.cam.90min) of the same molecule?
Its viability at 0.1 µM is 97.7%.

What about the activity at 0.1 µM ([1]; 1.5 h, read-out: cm.mii.90min) of the same molecule?
The activity at 0.1 µM was 102%.

And the activity at 0.1 µM ([1]; 1.5 h, read-out: cm.mito.90min)?
Its activity at 0.1 µM is 97.7%.

What about the viability at 0.1 µM ([1]; 1.5 h, read-out: cm.tc.90min) of the same molecule?
The viability at 0.1 µM was 97.7%.

What about the viability at 1 µM ([1]; 1.5 h, read-out: cm.cam.90min) of the same molecule?
The viability at 1 µM was 101%.

And the activity at 1 µM ([1]; 1.5 h, read-out: cm.mii.90min)?
The activity at 1 µM was 98.3%.

And the activity at 1 µM ([1]; 1.5 h, read-out: cm.mito.90min)?
Its activity at 1 µM is 101%.

What about the viability at 1 µM ([1]; 1.5 h, read-out: cm.tc.90min) of the same molecule?
The viability at 1 µM was 101%.

What about the viability at 10 µM ([1]; 1.5 h, read-out: cm.cam.90min) of the same molecule?
Its viability at 10 µM is 99.5%.

And the activity at 10 µM ([1]; 1.5 h, read-out: cm.mii.90min)?
Its activity at 10 µM is 105%.

What about the activity at 10 µM ([1]; 1.5 h, read-out: cm.mito.90min) of the same molecule?
Its activity at 10 µM is 99.5%.

What about the viability at 10 µM ([1]; 1.5 h, read-out: cm.tc.90min) of the same molecule?
Its viability at 10 µM is 99.3%.

And the viability at 100 µM ([1]; 1.5 h, read-out: cm.cam.90min)?
The viability at 100 µM was 1.03%.

And the activity at 100 µM ([1]; 1.5 h, read-out: cm.mii.90min)?
The activity at 100 µM was 152%.

And the activity at 100 µM ([1]; 1.5 h, read-out: cm.mito.90min)?
The activity at 100 µM was 0.83%.

What about the viability at 100 µM ([1]; 1.5 h, read-out: cm.tc.90min) of the same molecule?
The viability at 100 µM was 1.06%.

What about the viability at 0.01 µM ([1]; 24 h, read-out: cm.cam.24hrs) of the same molecule?
The viability at 0.01 µM was 103%.

And the activity at 0.01 µM ([1]; 24 h, read-out: cm.mii.24hrs)?
The activity at 0.01 µM was 93.5%.

And the activity at 0.01 µM ([1]; 24 h, read-out: cm.mito.24hrs)?
The activity at 0.01 µM was 102%.

And the viability at 0.01 µM ([1]; 24 h, read-out: cm.tc.24hrs)?
The viability at 0.01 µM was 102%.

What about the viability at 0.1 µM ([1]; 24 h, read-out: cm.cam.24hrs) of the same molecule?
The viability at 0.1 µM was 99.5%.

What about the activity at 0.1 µM ([1]; 24 h, read-out: cm.mii.24hrs) of the same molecule?
The activity at 0.1 µM was 93%.

What about the activity at 0.1 µM ([1]; 24 h, read-out: cm.mito.24hrs) of the same molecule?
The activity at 0.1 µM was 98.7%.

And the viability at 0.1 µM ([1]; 24 h, read-out: cm.tc.24hrs)?
The viability at 0.1 µM was 99.3%.

What about the viability at 1 µM ([1]; 24 h, read-out: cm.cam.24hrs) of the same molecule?
The viability at 1 µM was 101%.

What about the activity at 1 µM ([1]; 24 h, read-out: cm.mii.24hrs) of the same molecule?
Its activity at 1 µM is 93.7%.

And the activity at 1 µM ([1]; 24 h, read-out: cm.mito.24hrs)?
The activity at 1 µM was 98.5%.

What about the viability at 1 µM ([1]; 24 h, read-out: cm.tc.24hrs) of the same molecule?
The viability at 1 µM was 101%.

And the viability at 10 µM ([1]; 24 h, read-out: cm.cam.24hrs)?
Its viability at 10 µM is 103%.

What about the activity at 10 µM ([1]; 24 h, read-out: cm.mii.24hrs) of the same molecule?
Its activity at 10 µM is 85.7%.

What about the activity at 10 µM ([1]; 24 h, read-out: cm.mito.24hrs) of the same molecule?
Its activity at 10 µM is 102%.

What about the viability at 10 µM ([1]; 24 h, read-out: cm.tc.24hrs) of the same molecule?
Its viability at 10 µM is 103%.

What about the viability at 100 µM ([1]; 24 h, read-out: cm.cam.24hrs) of the same molecule?
The viability at 100 µM was 0.64%.

What about the activity at 100 µM ([1]; 24 h, read-out: cm.mii.24hrs) of the same molecule?
The activity at 100 µM was 31.3%.

What about the activity at 100 µM ([1]; 24 h, read-out: cm.mito.24hrs) of the same molecule?
The activity at 100 µM was 0.24%.

What about the viability at 100 µM ([1]; 24 h, read-out: cm.tc.24hrs) of the same molecule?
Its viability at 100 µM is 0.62%.

And the minimal effective concentration ([1]; 1.5 h, read-out: cm.cam.90min POD)?
The minimal effective concentration was 18.6 µM.

And the minimal effective concentration ([1]; 1.5 h, read-out: cm.mii.90min POD)?
Its minimal effective concentration is 12.4 µM.

What about the minimal effective concentration ([1]; 1.5 h, read-out: cm.mito.90min POD) of the same molecule?
Its minimal effective concentration is 14.2 µM.

What about the minimal effective concentration ([1]; 1.5 h, read-out: cm.tc.90min POD) of the same molecule?
The minimal effective concentration was 16.7 µM.

What about the minimal effective concentration ([1]; 24 h, read-out: cm.cam.24hrs POD) of the same molecule?
The minimal effective concentration was 35.2 µM.

And the minimal effective concentration ([1]; 24 h, read-out: cm.mii.24hrs POD)?
The minimal effective concentration was 9.6 µM.

And the minimal effective concentration ([1]; 24 h, read-out: cm.mito.24hrs POD)?
Its minimal effective concentration is 33.1 µM.

And the minimal effective concentration ([1]; 24 h, read-out: cm.tc.24hrs POD)?
The minimal effective concentration was 35.1 µM.
